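In this assay, cells in 96-well plates receive the compound at five concentrations for 48 hours. Endpoints are linearly interpolated between the surrounding concentrations. GI50 is the concentration that inhibits growth by half. TGI: concentration producing complete growth inhibition.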 Bounds are passed on as bounds.

Test systems include CCRF-CEM leukemia; SF-268 CNS; A498 renal; SN12C renal; OVCAR-4 ovarian; T-47D breast; MDA-MB-231 breast; EKVX NSCLC; SK-OV-3 ovarian; UACC-257 melanoma.
Common to all, as to experiment: NCI anticancer screen, dose series, 48 h

`CCOC(=O)[C@@H](C)C[C@H](Cc1ccccc1)NC(=O)c1csc([C@@H](C[C@H](C(C)C)N(C)C(=O)CNC(=O)[C@H]2CCCCN2C)OC(C)=O)n1`: the GI50 in the test on CCRF-CEM leukemia is 1.08 µM; with SF-268 CNS, 4.89 µM; in the test with A498 renal, 0.464 µM; in the test with SN12C renal, 2.18 µM; in the test with OVCAR-4 ovarian it was 1.3 µM; in the test with T-47D breast it was 0.59 µM. For the same compound, the results for the GI50 in the test on MDA-MB-231 breast, in the test on EKVX NSCLC and in the test with SK-OV-3 ovarian were 1.44 µM, 1.97 µM and 0.835 µM, respectively. Further, the TGI in the test on CCRF-CEM leukemia was over 14.3 µM; with SF-268 CNS, over 14.3 µM; with A498 renal, 1.38 µM; in the test with SN12C renal it was over 14.3 µM; in the test with OVCAR-4 ovarian, over 14.3 µM; in the test with T-47D breast, over 14.3 µM. Also, the results for the TGI in the test with MDA-MB-231 breast, with EKVX NSCLC and with SK-OV-3 ovarian were over 10.8 µM, over 14.3 µM and over 14.3 µM, respectively.

For the compound `COC(=O)[C@]12CC[C@@H](C)[C@H](C)[C@@H]1C1=CC[C@@H]3[C@@]4(C)C(C=O)=C[C@@](C)(COS(C)(=O)=O)C4=CC[C@@]3(C)[C@]1(C)CC2`, the GI50 with CCRF-CEM leukemia was 0.324 µM; with SF-268 CNS, 0.248 µM; in the test on A498 renal, 0.193 µM; with SN12C renal, 0.339 µM; in the test with T-47D breast, 0.158 µM; in the test with MDA-MB-231 breast, 0.232 µM. Also, the figures for the GI50 in the test with EKVX NSCLC and with SK-OV-3 ovarian were 0.315 µM and 0.667 µM, respectively. Besides, the TGI with CCRF-CEM leukemia turned out to be 1.47 µM; with SF-268 CNS, 0.721 µM; with A498 renal it was 1.13 µM; with SN12C renal, 1.92 µM; with T-47D breast it was 0.47 µM; with MDA-MB-231 breast it was 0.578 µM. The TGI was 1.34 µM in the test with EKVX NSCLC and 2.92 µM in the test on SK-OV-3 ovarian.

`CCCC(O)[C@@]1(CC)CC(C)C(O)(C2(C)C[C@H](C)[C@@H](C(CC)C(=O)C(C)[C@@H](O)[C@H](C)C3OC(O)(C(CC)C(=O)O)[C@@H](C)C(O)C3CC)O2)O1` (stereo partly specified): the TGI in the test on CCRF-CEM leukemia stood at 7.36 µM; in the test on SF-268 CNS, 2.21 µM; in the test on A498 renal, 2.15 µM; in the test with UACC-257 melanoma it was 1.94 µM; in the test with SN12C renal it was 2.39 µM; in the test on OVCAR-4 ovarian it was 6.94 µM. The TGI in the test on MDA-MB-231 breast came to 2.11 µM; in the test with EKVX NSCLC, 4.21 µM; with SK-OV-3 ovarian, 6.54 µM.

For `[O-][n+]1c2cccc(O)c2[n+]([O-])c2cccc(O)c21`, the TGI in the test on CCRF-CEM leukemia was 56 µM; in the test with SF-268 CNS, over 100 µM; with A498 renal it was over 100 µM; in the test on UACC-257 melanoma, over 100 µM; in the test on OVCAR-4 ovarian it was over 100 µM; in the test on T-47D breast it was over 100 µM. The results for the TGI in the test with EKVX NSCLC and in the test with SK-OV-3 ovarian were 76.2 µM and over 100 µM, respectively.

For the compound `OCC1OC(OC2(CO)OC(CO)C(O)C2O)C(O)C(O)C1O` (stereo unspecified), the GI50 in the test on CCRF-CEM leukemia, in the test with SF-268 CNS, in the test with UACC-257 melanoma, in the test with SN12C renal, with OVCAR-4 ovarian and in the test with T-47D breast was over 100 µM each time. Moreover, the GI50 in the test with MDA-MB-231 breast, in the test on EKVX NSCLC and in the test on SK-OV-3 ovarian was over 100 µM in each case. Further, the TGI with CCRF-CEM leukemia, in the test with SF-268 CNS, with UACC-257 melanoma, in the test with SN12C renal, with OVCAR-4 ovarian and in the test with T-47D breast was over 100 µM throughout. For the same compound, the TGI in the test with MDA-MB-231 breast, with EKVX NSCLC and with SK-OV-3 ovarian was over 100 µM throughout.

Turning to `C#COc1cccc(Nc2ncnc3cc(NC(=O)[C@@H](C)Cl)ccc23)c1`, the GI50 in the test with CCRF-CEM leukemia was 7.45 µM; with SF-268 CNS, 16.9 µM; in the test on A498 renal it was 7.16 µM; in the test on UACC-257 melanoma it was over 62.5 µM; in the test on SN12C renal it was 16.8 µM; with T-47D breast, 22.5 µM. Also, the GI50 was 17.2 µM in the test on MDA-MB-231 breast, 28.7 µM with EKVX NSCLC and 19.6 µM with SK-OV-3 ovarian. In addition, the TGI is over 62.5 µM in the test with CCRF-CEM leukemia; over 62.5 µM in the test with SF-268 CNS; 49.9 µM with A498 renal; over 62.5 µM in the test on UACC-257 melanoma; over 62.5 µM in the test with SN12C renal; over 62.5 µM in the test on T-47D breast. The TGI in the test with MDA-MB-231 breast, with EKVX NSCLC and with SK-OV-3 ovarian was over 62.5 µM in each case.

On to `Cc1ccc2ccc3c4ccccc4ccc3c2c1`, for which the GI50 in the test on CCRF-CEM leukemia was 22 µM; in the test on SF-268 CNS, 32.1 µM; in the test on A498 renal, 23.1 µM; in the test on UACC-257 melanoma, 27.1 µM; in the test with SN12C renal, 27 µM; in the test with OVCAR-4 ovarian, 17 µM. In addition, the GI50 was 23 µM with T-47D breast, 17.4 µM in the test with MDA-MB-231 breast and 39.5 µM in the test on SK-OV-3 ovarian. The TGI was 52.4 µM with CCRF-CEM leukemia; over 100 µM with SF-268 CNS; 63.6 µM with A498 renal; 83.4 µM with UACC-257 melanoma; over 100 µM in the test on SN12C renal; over 100 µM in the test with OVCAR-4 ovarian. Moreover, the results for the TGI in the test on T-47D breast, in the test with MDA-MB-231 breast and in the test on SK-OV-3 ovarian were 74.6 µM, 47.9 µM and over 100 µM, respectively.

As to `CCN(CC)CCCC(Nc1c2ccc(Cl)cc2nc2ccc(OC)cc12)c1ccc(Cl)cc1` (stereo unspecified), the GI50 in the test on CCRF-CEM leukemia was 0.53 µM; in the test on SF-268 CNS it was 1.43 µM; in the test with A498 renal, 1.26 µM; with UACC-257 melanoma it was 1.68 µM; in the test with OVCAR-4 ovarian it was 1.13 µM; in the test with T-47D breast it was 1.85 µM. The GI50 in the test with MDA-MB-231 breast is 0.67 µM; in the test with EKVX NSCLC, 1.35 µM; in the test on SK-OV-3 ovarian, 2.05 µM. In addition, the TGI came to 2.07 µM in the test on CCRF-CEM leukemia; 3.05 µM with SF-268 CNS; 2.64 µM in the test on A498 renal; 3.22 µM in the test on UACC-257 melanoma; 3.17 µM with OVCAR-4 ovarian; 3.96 µM with T-47D breast. For the same compound, the TGI in the test on MDA-MB-231 breast came to 2.24 µM; in the test on EKVX NSCLC, 2.96 µM; in the test on SK-OV-3 ovarian it was 3.89 µM.

Turning to `COc1cc([C@@H]2c3cc4c(cc3[C@H](SC(=N)N)[C@H]3COC(=O)[C@H]23)OCO4)cc(OC)c1OC`, the GI50 is 0.299 µM in the test on CCRF-CEM leukemia; 0.421 µM in the test with SF-268 CNS; 15.1 µM in the test with UACC-257 melanoma; 0.621 µM in the test on SN12C renal; 0.683 µM in the test on OVCAR-4 ovarian; 66.7 µM in the test on T-47D breast. The values for the GI50 in the test with MDA-MB-231 breast, in the test with EKVX NSCLC and in the test with SK-OV-3 ovarian were 0.388 µM, 0.291 µM and 0.201 µM, respectively. In addition, the TGI in the test on CCRF-CEM leukemia, with SF-268 CNS, with UACC-257 melanoma, in the test with SN12C renal, in the test with OVCAR-4 ovarian and with T-47D breast was over 100 µM each time. Moreover, the TGI with MDA-MB-231 breast is over 100 µM; in the test with EKVX NSCLC, over 100 µM; in the test on SK-OV-3 ovarian, over 33 µM.

Source of the values: PubChem BioAssay (NCI).
